Where two headings read alike, the source gives them in different places. Non-standard residues stand in square brackets, D forms with d. Residues, ends and D or L forms follow the SMILES beside them. ξ: configuration not given here. Oic(3aξ,7aξ) = O=C(O)[C@@H]1CC2CCCCC2N1; hArg = N=C(N)NCCCC[C@H](N)C(=O)O; Dab = NCC[C@H](N)C(=O)O
Assays:
[1] = tested on: NRP-1 expression on MDA-MB-231 breast cancer cells; experiment: Labelled urea-peptide hybrid binding assay at 37 °C, time course of NRP-1 cell surface expression (FACS); assay type: cell-based, human
Procedure: Usually, in the presence of its natural ligand, a transmembrane receptor at the cell surface may induce signaling, internalization of complex and recycling at the cell surface. […] Thus, to identify the mechanism of action of the hybrid 10 on the NRP-1 expression on cells, we followed its expression after a time course exposure of cells at 37 °C. […] This intriguing result focused our attention on tracking the level of expression intensity of NRP-1 on the surfaced of MDA-MB-231 cells exposed on compound 10. […] The median fluorescent intensity after 1 h (T60) of cell exposure on hybrid 10 was 1.5-fold higher than after 5 min of incubation (Figure 7b). […] This hypothesis is strengthened here, since MDA-MB-231 expressed a large amount of NRP-1 at the cell surface, but also had plenty of the cytoplasmic counterpart, reaching a maximum of median fluorescence intensity higher than the restricted level of NRP-1 expression at the surface (Figure 7c).
(§1) Cells were harvested using a mix of EDTA/Trypsin buffer (Invitrogen, France) to detach cells from plastic after 5 min exposure at 37 °C. […] After washing with PBS containing 2% FCS, stained cells were analyzed using BD FACSCalibur^TM (San Jose, CA, USA) and FlowJo^TM cell analysis software (FlowJo LLC, Ashland, OR, USA). […]

VEGF-A165/NRP-1 complex [2] = molecular target: T1, VEGF-A165/NRP-1 complex (Homo sapiens, UniProt O14786); experiment: Competitive ELISA-like assay, inhibition of bt-VEGF-A165 binding to immobilized NRP-1; conditions: recombinant human NRP-1, bt-VEGF-A165, chemiluminescence; read-out: IC50, VEGF-A165/NRP-1 complex inhibitory effect
T1 construct: purchased R&D Systems
T1 sequence (O14786 22-641 limits assumed): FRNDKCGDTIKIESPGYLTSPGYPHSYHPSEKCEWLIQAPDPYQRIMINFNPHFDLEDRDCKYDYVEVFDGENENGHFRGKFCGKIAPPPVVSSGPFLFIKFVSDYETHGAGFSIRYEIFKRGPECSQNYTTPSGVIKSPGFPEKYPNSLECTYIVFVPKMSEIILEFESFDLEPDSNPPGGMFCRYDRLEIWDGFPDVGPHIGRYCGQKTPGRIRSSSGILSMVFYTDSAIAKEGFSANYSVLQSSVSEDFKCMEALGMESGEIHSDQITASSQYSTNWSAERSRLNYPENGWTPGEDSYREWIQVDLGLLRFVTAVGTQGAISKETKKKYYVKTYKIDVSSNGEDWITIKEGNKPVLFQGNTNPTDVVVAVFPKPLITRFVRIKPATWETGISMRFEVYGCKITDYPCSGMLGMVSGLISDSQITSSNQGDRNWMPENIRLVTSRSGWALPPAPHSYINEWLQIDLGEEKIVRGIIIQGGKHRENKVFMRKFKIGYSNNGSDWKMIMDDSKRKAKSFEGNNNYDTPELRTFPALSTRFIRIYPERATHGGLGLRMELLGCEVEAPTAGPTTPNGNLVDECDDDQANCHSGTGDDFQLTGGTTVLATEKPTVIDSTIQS
Procedure: Inhibitory activity of urea–peptide hybrids against VEGF-A165/NRP-1 complex formation was assessed with a screening ELISA-like assay. NRP-1 was immobilized on microplate wells by simple adsorption and urea–peptide hybrids competed for NRP-1 with biotinylated VEGF-A165 (bt-VEGF-A165). The amount of receptor bound bt-VEGF-A165 was visualized by its interaction with the streptavidin–horseradish peroxidase conjugate (strep-HRP) and the chemiluminescent substrate. The first analyzed group of compounds were analogues 1–3 with the urea bond between L1 and L2. […] The best hybrid in this group was compound 3, which had Lys^U (gDab) branching (where “g” corresponds to guanidinium group), but its IC50 value decreased only 2-fold. Therefore, we assume that no additional interactions between urea bond and the surface of the protein occurred. […] In the case of urea–peptide hybrids, the urea bond might be capable of forming additional hydrogen bonds with protein residues on the surface of NRP-1. The affinity of compounds may conceivably be affected by the colocation of the urea bond and the free amino group of hArg in the branching. In addition, for compounds 4–6, we can observe that decreasing the distance between the free amino group in the main chain and the urea bond in the branching has a positive effect on compounds’ affinity for NRP-1.
This method was previously described for NRP-1 [44, 45, 46]. Briefly, overnight coating at 4 °C of the flat bottom surface of a 96-well plate with 100 μL (200 ng/well) recombinant human NRP-1, NRP-2, VEGFR-1 or VEGFR-2 was followed by non-specific interactions blocking using 0.5% bovine serum albumin (BSA) in PBS. Next, 50 µL of urea–peptide hybrid in PBS and 50 µL (400 ng/mL) of human (bt)-VEGF-A165 in PBS containing 4 µg/mL of heparin were added respectively. Plates were incubated for 2 h at RT, and then washed and treated with streptavidin-horseradish peroxidase conjugate in PBS (1:8000). Next, 100 µL chemiluminescent substrate was added, and luminescence was quantified using Tecan Infinite F200Pro microplate reader (Männedorf, Switzerland). In a positive control (P) only (bt)-VEGF-A165 was present in wells. Not coated by receptor wells were treated as a negative control (N). Percentages of inhibition were calculated by the following formula:100% − [[(S − N)/(P − N)]∙100%](1) where S is the signal intensity measured in wells with urea–peptide hybrid. The IC50 of each urea–peptide hybrid was calculated using the nonlinear regression function with GraphPad Prism Version-5.01 (GraphPad Software, San Diego, CA, USA). Data are presented as log (inhibitor) versus normalized response-variable slope (Figure S16). Data are the means ± SEMs of two or three independent experiments, each performed in triplicate.

[3] = tested on: NRP-1-positive breast cancer cells (MDA-MB-231); experiment: Labelled urea-peptide hybrid binding assay at 4 °C on cells (FACS), with NRP-1 co-staining; assay type: cell-based, human
Source text: VEGF-A165 binds to cell-surface NRP-1 on endothelial cells, effectively reducing surface levels of this receptor, promoting complex internalization and possibly inducing biological effects. Based on this mechanism, peptide carriers for selective drug delivery, such as iRGD peptides, have been recently disclosed. The iRGDs are used to selectively address potential therapeutic agents, e.g., doxorubicin or siRNAs inside malignant cells. We tested our tagged urea–peptide hybrid’s ability to bind human NRP-1-positive breast cancer cells (MDA-MB-231), which expressed large amount of NRP-1 at the cell surface (Figure 6a). A broad range of concentrations between 0 to 100 µg/mL of compound 10 was used to show its binding capacity on cells using fluorescence-activated cell sorting (FACS). […] To follow the impact of the ligation of this peptidomimetic on NRP-1 expression, we verified whether hybrid 10 binding interferes with the antibody used to detect NRP-1. […]
as §1

VEGF-A165/NRP-1 complex [4] = molecular target: T1, VEGF-A165/NRP-1 complex; conditions: read-out: IC50, VEGF-A165/NRP-1 complex inhibitory effect, cited from earlier work
[5] = In vitro enzymatic stability in human blood serum (LC-SWATH-MS); assay type: in vitro ADME; conditions: pooled human blood serum, 37 °C
Procedure: Rapid renal clearance and enzymatic degradation are classified as most important disadvantages of peptides as drugs. Covalent linkage to plasma proteins or chemical modifications, including amide bond modifications, might improve their half-lives. We performed proteolytic stability studies in human blood serum to investigate whether the introduction of urea bonds affected the half-lives of compounds from each of synthesized group of hybrids. Compounds 3, 6 and 7 were incubated with human serum at 37 °C. Samples were taken at different time intervals and analyzed using LC-SWATH-MS [88, 89, 90]. […] Hybrids 6 and 7 were stable toward enzymatic degradation, with 50% of each compound still being intact after 96 h (Figure 5). […] Overall, it can be concluded that the substitution of an amide bond with a urea bond has a positive effect on the proteolytic stability of the examined inhibitors.
The study was conducted in full accordance with ethical principles in accordance with the ICH E6 (R2) Guideline for Good Clinical Practice and the Code of Good Customs in Science developed by the Polish Academy of Sciences. Signed consent for using serum was obtained from volunteers. The Rector’s Commission for Ethics of Scientific Research with Human Participation, University of Warsaw, Warsaw, Poland gave the ethical approval (approval number 51/2020). Human blood from four healthy persons was directly drawn into evacuated tubes and left undisturbed at room temperature for 1 h to clot. Tubes were centrifuged at 2500× g for 10 min to prevent possible platelet activation. Serum was pipetted out of the blood collection tubes, pooled and collected in microtubes.
A degradation assay was adapted from a method described previously. Human blood serum was preactivated in Eppendorf ThermoMixer® Comfort (Hamburg, Germany) at 37 °C for 20 min (350 rpm). Next, 20 μL of aqueous urea–peptide hybrid stock solution was added to give ∼750 μg/mL final compound concentration, and incubation was continued. At selected time intervals, 50 μL of the mixture was collected and quenched by adding 200 μL of ACN:H2O:FA mixture (89:10:1, v:v:v). The obtained suspension was vortexed for 1 min (3000 min^−1) and centrifuged for 10 min in 4 °C (11,000× g). 100 μL of supernatant was collected and lyophilized. The samples reconstituted in 1 mL of 10 mM ammonium formate with 0.1% FA were subjected to LC-MS. Relative concentration at time intervals was calculated using peak area of either individual or most intense fragment of compound of interest. Analyst software version 1.7.1 was used for data acquisition, Peak View 2.2 and MultiQuant 2.1 (Sciex, ON) were used for data processing. Detailed analytical data can be found in Supplementary Materials (Figures S17–S45). […]

5/6-FAM-Dab(hArg^U)-Dab-Oic-Arg [Compound 10]
median fluorescent intensity of NRP-1 after 1 h (T60) relative to 5 min of incubation ([1]; 100 µg/mL, 37 °C): 1.5 fold | effect on NRP-1 cell surface expression ([1]; time course at 37 °C, independently of time exposure): no downmodulation of NRP-1 expression | IC50 (VEGF-A165/NRP-1 complex [2]): 4.04 µM | binding on cells ([3]; 0 to 100 µg/mL, FACS): dose-dependent | median fluorescence intensity of NRP-1 staining in presence of compound ([3]; 100 μg/ml, 4 °C, 94 in its absence): 88

N=C(N)NCCCC[C@H](N)C(=O)NCCCC[C@H](N)C(=O)N[C@@H](CCN)C(=O)N1C2CCCCC2C[C@H]1C(=O)N[C@@H](CCCNC(=N)N)C(=O)O (stereo partly drawn) [PP, Lys(hArg)-Dab-Oic-Arg, reference compound] (H-K(hArg)[Dab][Oic(3aξ,7aξ)]R-OH)
IC50 (VEGF-A165/NRP-1 complex [4]; data already published): 2.3 µM | half-life [5]: 8 h

Lys(Arg^U)–Dab–Oic–Arg
IC50 (VEGF-A165/NRP-1 complex [4]; earlier urea analogue): 5.5 µM
